According to article PMC6620786 (Molecular pharmaceutics, 2019):

How the values were obtained:
[1] = target: T1, ABCG2 (Homo sapiens, UniProt Q9UNQ0); assay: vanadate-sensitive ATPase stimulation in insect cell membranes expressing ABCG2; format: biochemical
T1 sequence (Q9UNQ0 1-655): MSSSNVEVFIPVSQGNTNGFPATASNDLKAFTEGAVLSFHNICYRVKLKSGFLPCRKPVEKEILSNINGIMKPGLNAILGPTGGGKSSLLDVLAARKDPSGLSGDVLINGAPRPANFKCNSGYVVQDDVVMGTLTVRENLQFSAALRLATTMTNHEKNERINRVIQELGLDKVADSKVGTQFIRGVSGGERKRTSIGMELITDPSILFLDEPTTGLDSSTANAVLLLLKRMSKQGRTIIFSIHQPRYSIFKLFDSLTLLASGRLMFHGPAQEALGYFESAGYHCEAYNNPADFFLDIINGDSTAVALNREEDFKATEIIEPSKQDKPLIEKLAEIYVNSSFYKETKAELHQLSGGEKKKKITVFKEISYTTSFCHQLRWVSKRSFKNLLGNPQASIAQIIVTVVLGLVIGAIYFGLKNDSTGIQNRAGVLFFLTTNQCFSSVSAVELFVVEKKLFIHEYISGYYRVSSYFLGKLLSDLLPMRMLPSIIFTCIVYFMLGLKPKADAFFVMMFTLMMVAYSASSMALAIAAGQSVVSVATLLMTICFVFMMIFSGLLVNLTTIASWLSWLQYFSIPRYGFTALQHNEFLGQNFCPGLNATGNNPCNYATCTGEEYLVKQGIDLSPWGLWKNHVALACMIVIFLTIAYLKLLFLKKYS

[2] = target: ABCB1 (Homo sapiens, UniProt P08183); assay: vanadate-sensitive ATPase stimulation in insect cell membranes expressing ABCB1; format: biochemical
Chain of ABCB1 (P08183 whole entry): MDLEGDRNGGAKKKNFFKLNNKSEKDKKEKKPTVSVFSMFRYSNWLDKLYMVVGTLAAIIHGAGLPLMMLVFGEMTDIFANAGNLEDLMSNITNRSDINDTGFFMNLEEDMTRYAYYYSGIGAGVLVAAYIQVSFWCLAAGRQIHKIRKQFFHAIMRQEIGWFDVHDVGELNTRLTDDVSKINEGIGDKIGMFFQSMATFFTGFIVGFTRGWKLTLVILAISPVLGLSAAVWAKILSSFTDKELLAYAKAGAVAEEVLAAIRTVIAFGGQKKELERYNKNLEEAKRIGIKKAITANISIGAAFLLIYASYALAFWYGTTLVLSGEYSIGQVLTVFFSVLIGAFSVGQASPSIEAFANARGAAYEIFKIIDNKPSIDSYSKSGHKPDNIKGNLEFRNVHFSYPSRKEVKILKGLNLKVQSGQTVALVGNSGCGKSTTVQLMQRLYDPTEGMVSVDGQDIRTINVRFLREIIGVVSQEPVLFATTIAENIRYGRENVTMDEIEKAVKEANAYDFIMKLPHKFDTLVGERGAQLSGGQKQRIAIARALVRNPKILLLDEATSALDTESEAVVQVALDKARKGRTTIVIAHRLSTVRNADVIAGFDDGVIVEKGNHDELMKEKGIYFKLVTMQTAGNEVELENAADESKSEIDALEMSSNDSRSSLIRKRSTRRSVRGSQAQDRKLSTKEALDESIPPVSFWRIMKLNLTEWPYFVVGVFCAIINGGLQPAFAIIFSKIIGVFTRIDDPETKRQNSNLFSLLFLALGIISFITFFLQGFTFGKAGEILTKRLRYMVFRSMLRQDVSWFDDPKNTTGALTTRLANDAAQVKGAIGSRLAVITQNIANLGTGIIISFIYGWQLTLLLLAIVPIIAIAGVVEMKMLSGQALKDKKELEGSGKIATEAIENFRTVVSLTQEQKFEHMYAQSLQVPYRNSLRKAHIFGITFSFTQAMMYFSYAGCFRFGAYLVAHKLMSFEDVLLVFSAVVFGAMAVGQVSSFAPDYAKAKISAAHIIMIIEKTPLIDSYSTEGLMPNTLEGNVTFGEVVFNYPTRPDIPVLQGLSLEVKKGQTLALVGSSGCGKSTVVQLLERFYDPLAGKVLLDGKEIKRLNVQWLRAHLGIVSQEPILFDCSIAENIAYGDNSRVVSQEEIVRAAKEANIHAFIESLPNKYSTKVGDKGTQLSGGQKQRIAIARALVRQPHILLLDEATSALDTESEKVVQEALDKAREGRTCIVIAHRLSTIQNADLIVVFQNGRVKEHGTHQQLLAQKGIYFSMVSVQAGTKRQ

SMILES: Cn1cc(-c2cc3c(N4CCN(c5ncc([C@@](C)(N)c6ccc(F)cc6)cn5)CC4)ncnn3c2)cn1 [avapritinib]
- EC50 [1]: ~200 nM
- EC50 [2]: ~5000 nM
